{
  "source": "patent US20230085307A1",
  "about": "“PYRIDAZINONE COMPOUND AND HERBICIDE” (NISSAN CHEMICAL CORPORATION, priority 2019, published 2023)",
  "key": {"[1]": {"system": "barnyard grass", "assay": "Test Example 3: herbicidal effect by foliage application, Wagner pot (Table 18, symbol H)", "assay_type": "in vivo, barnyard grass (Echinochloa crus-galli)", "conditions": "320 g/ha", "summary_of_the_method": "(§1)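 Plants were sown in alluvial soil held under 0.1–0.5 cm standing water and grown 14 days in a greenhouse at 25–30 °C. An emulsifiable formulation, water-diluted to the set dose, was then sprayed onto the foliage, and effects were scored three weeks later using previously defined criteria.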"}, "[2]": {"system": "Chinese sprangletop", "assay": "Test Example 3: herbicidal effect by foliage application, Wagner pot (Table 18, symbol D)", "assay_type": "in vivo, chinese sprangletop (Leptochloa chinensis)", "conditions": "320 g/ha", "summary_of_the_method": "as §1"}, "[3]": {"system": "rice flat sedge", "assay": "Test Example 3: herbicidal effect by foliage application, Wagner pot (Table 18, symbol E)", "assay_type": "in vivo, rice flat sedge (Cyperus iria)", "conditions": "320 g/ha", "summary_of_the_method": "as §1"}, "[4]": {"system": "southern crabgrass", "assay": "Test Example 4: herbicidal effect by soil treatment (Table 19, symbol F)", "assay_type": "in vivo, southern crabgrass (Digitaria ciliaris)", "conditions": "amount of applied herbicide 320 g/ha", "summary_of_the_method": "(§2)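 Seeds were sown in sterilized diluvial soil and covered with about 1.5 cm of soil. An emulsion formulation diluted with water to a predetermined herbicide amount was sprayed evenly onto the soil surface. Plants grew in a greenhouse at 25° C. to 30° C., and the effect was scored three weeks after application using criteria from an earlier test.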"}, "[5]": {"system": "green foxtail", "assay": "Test Example 4: herbicidal effect by soil treatment (Table 19, symbol G)", "assay_type": "in vivo, green foxtail (Setaria viridis)", "conditions": "amount of applied herbicide 320 g/ha", "summary_of_the_method": "as §2"}, "[6]": {"system": "barnyard grass", "assay": "Test Example 4: herbicidal effect by soil treatment (Table 19, symbol H)", "assay_type": "in vivo, barnyard grass (Echinochloa crus-galli)", "conditions": "amount of applied herbicide 320 g/ha", "summary_of_the_method": "as §2"}, "[7]": {"system": "wild oat", "assay": "Test Example 4: herbicidal effect by soil treatment (Table 19, symbol I)", "assay_type": "in vivo, wild oat (Avena fatua)", "conditions": "amount of applied herbicide 320 g/ha", "summary_of_the_method": "as §2"}, "[8]": {"system": "blackgrass", "assay": "Test Example 4: herbicidal effect by soil treatment (Table 19, symbol J)", "assay_type": "in vivo, blackgrass (Alopecurus myosuroides)", "conditions": "amount of applied herbicide 320 g/ha", "summary_of_the_method": "as §2"}, "[9]": {"system": "Italian ryegrass", "assay": "Test Example 4: herbicidal effect by soil treatment (Table 19, symbol K)", "assay_type": "in vivo, Italian ryegrass (Lolium multiflorum)", "conditions": "amount of applied herbicide 320 g/ha", "summary_of_the_method": "as §2"}, "[10]": {"system": "windgrass", "assay": "Test Example 4: herbicidal effect by soil treatment (Table 19, symbol L)", "assay_type": "in vivo, windgrass (Apera spica-venti)", "conditions": "amount of applied herbicide 320 g/ha", "summary_of_the_method": "as §2"}, "[11]": {"system": "velvetleaf", "assay": "Test Example 4: herbicidal effect by soil treatment (Table 19, symbol M)", "assay_type": "in vivo, velvetleaf (Abutilon theophrasti)", "conditions": "amount of applied herbicide 320 g/ha", "summary_of_the_method": "as §2"}, "[12]": {"system": "redroot pigweed", "assay": "Test Example 4: herbicidal effect by soil treatment (Table 19, symbol N)", "assay_type": "in vivo, redroot pigweed (Amaranthus retroflexus)", "conditions": "amount of applied herbicide 320 g/ha", "summary_of_the_method": "as §2"}, "[13]": {"system": "lambsquarters", "assay": "Test Example 4: herbicidal effect by soil treatment (Table 19, symbol O)", "assay_type": "in vivo, lambsquarters (Chenopodium album)", "conditions": "amount of applied herbicide 320 g/ha", "summary_of_the_method": "as §2"}, "[14]": {"system": "chickweed", "assay": "Test Example 4: herbicidal effect by soil treatment (Table 19, symbol P)", "assay_type": "in vivo, common chickweed (Stellaria media)", "conditions": "amount of applied herbicide 320 g/ha", "summary_of_the_method": "as §2"}, "[15]": {"system": "persian speedwell", "assay": "Test Example 4: herbicidal effect by soil treatment (Table 19, symbol R)", "assay_type": "in vivo, Persian speedwell (Veronica persica)", "conditions": "amount of applied herbicide 320 g/ha", "summary_of_the_method": "as §2"}, "[16]": {"system": "southern crabgrass", "assay": "Test Example 5: herbicidal effect by foliage application, plastic box (Table 20, symbol F)", "assay_type": "in vivo, southern crabgrass (Digitaria ciliaris)", "conditions": "320 g/ha, foliage application after 14-day growth, evaluated three weeks after application", "summary_of_the_method": "(§3)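 Plants sown in sterilized diluvial soil and grown 14 days in a greenhouse at 25° C to 30° C, then sprayed on the foliage with the compound's emulsion diluted in water to a predetermined herbicide amount. Injury to weeds and crops scored three weeks after application on a visual rating scale.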"}, "[17]": {"system": "green foxtail", "assay": "Test Example 5: herbicidal effect by foliage application, plastic box (Table 20, symbol G)", "assay_type": "in vivo, green foxtail (Setaria viridis)", "conditions": "320 g/ha, foliage application after 14-day growth, evaluated three weeks after application", "summary_of_the_method": "as §3"}, "[18]": {"system": "barnyard grass", "assay": "Test Example 5: herbicidal effect by foliage application, plastic box (Table 20, symbol H)", "assay_type": "in vivo, barnyard grass (Echinochloa crus-galli)", "conditions": "320 g/ha, foliage application after 14-day growth, evaluated three weeks after application", "summary_of_the_method": "as §3"}, "[19]": {"system": "wild oat", "assay": "Test Example 5: herbicidal effect by foliage application, plastic box (Table 20, symbol I)", "assay_type": "in vivo, wild oat (Avena fatua)", "conditions": "320 g/ha, foliage application after 14-day growth, evaluated three weeks after application", "summary_of_the_method": "as §3"}, "[20]": {"system": "blackgrass", "assay": "Test Example 5: herbicidal effect by foliage application, plastic box (Table 20, symbol J)", "assay_type": "in vivo, blackgrass (Alopecurus myosuroides)", "conditions": "320 g/ha, foliage application after 14-day growth, evaluated three weeks after application", "summary_of_the_method": "as §3"}, "[21]": {"system": "Italian ryegrass", "assay": "Test Example 5: herbicidal effect by foliage application, plastic box (Table 20, symbol K)", "assay_type": "in vivo, Italian ryegrass (Lolium multiflorum)", "conditions": "320 g/ha, foliage application after 14-day growth, evaluated three weeks after application", "summary_of_the_method": "as §3"}, "[22]": {"system": "windgrass", "assay": "Test Example 5: herbicidal effect by foliage application, plastic box (Table 20, symbol L)", "assay_type": "in vivo, windgrass (Apera spica-venti)", "conditions": "320 g/ha, foliage application after 14-day growth, evaluated three weeks after application", "summary_of_the_method": "as §3"}, "[23]": {"system": "velvetleaf", "assay": "Test Example 5: herbicidal effect by foliage application, plastic box (Table 20, symbol M)", "assay_type": "in vivo, velvetleaf (Abutilon theophrasti)", "conditions": "320 g/ha, foliage application after 14-day growth, evaluated three weeks after application", "summary_of_the_method": "as §3"}, "[24]": {"system": "redroot pigweed", "assay": "Test Example 5: herbicidal effect by foliage application, plastic box (Table 20, symbol N)", "assay_type": "in vivo, redroot pigweed (Amaranthus retroflexus)", "conditions": "320 g/ha, foliage application after 14-day growth, evaluated three weeks after application", "summary_of_the_method": "as §3"}, "[25]": {"system": "lambsquarters", "assay": "Test Example 5: herbicidal effect by foliage application, plastic box (Table 20, symbol O)", "assay_type": "in vivo, lambsquarters (Chenopodium album)", "conditions": "320 g/ha, foliage application after 14-day growth, evaluated three weeks after application", "summary_of_the_method": "as §3"}, "[26]": {"system": "chickweed", "assay": "Test Example 5: herbicidal effect by foliage application, plastic box (Table 20, symbol P)", "assay_type": "in vivo, common chickweed (Stellaria media)", "conditions": "320 g/ha, foliage application after 14-day growth, evaluated three weeks after application", "summary_of_the_method": "as §3"}, "[27]": {"system": "persian speedwell", "assay": "Test Example 5: herbicidal effect by foliage application, plastic box (Table 20, symbol R)", "assay_type": "in vivo, Persian speedwell (Veronica persica)", "conditions": "320 g/ha, foliage application after 14-day growth, evaluated three weeks after application", "summary_of_the_method": "as §3"}},
  "data": [
    {"smiles": "CCCCOc1cccc(-c2sc3c(Cl)cccc3c2-c2c(O)c(C)nn(C)c2=O)c1", "note": "[4-068]", "values": [
      {"measurement": "herbicidal effect on barnyard grass (H)", "setting": "[1]", "result": "4 (Herbicidal rate of 70% or more and less than 90%)"},
      {"measurement": "herbicidal effect on Chinese sprangletop (D)", "setting": "[2]", "result": "3 (Herbicidal rate of 40% or more and less than 70%)"},
      {"measurement": "herbicidal effect on rice flat sedge (E)", "setting": "[3]", "result": "3 (Herbicidal rate of 40% or more and less than 70%)"},
      {"measurement": "Herbicidal effect by soil treatment, F: southern crabgrass", "setting": "[4]", "result": "0 (Herbicidal rate of 5% or less (almost no effect))"},
      {"measurement": "Herbicidal effect by soil treatment, G: green foxtail", "setting": "[5]", "result": "0 (Herbicidal rate of 5% or less (almost no effect))"},
      {"measurement": "Herbicidal effect by soil treatment, H: barnyard grass", "setting": "[6]", "result": "0 (Herbicidal rate of 5% or less (almost no effect))"},
      {"measurement": "Herbicidal effect by soil treatment, I: wild oat", "setting": "[7]", "result": "0 (Herbicidal rate of 5% or less (almost no effect))"},
      {"measurement": "Herbicidal effect by soil treatment, J: blackgrass", "setting": "[8]", "result": "0 (Herbicidal rate of 5% or less (almost no effect))"},
      {"measurement": "Herbicidal effect by soil treatment, K: Italian ryegrass", "setting": "[9]", "result": "0 (Herbicidal rate of 5% or less (almost no effect))"},
      {"measurement": "Herbicidal effect by soil treatment, L: windgrass", "setting": "[10]", "result": "0 (Herbicidal rate of 5% or less (almost no effect))"},
      {"measurement": "Herbicidal effect by soil treatment, M: velvetleaf", "setting": "[11]", "result": "0 (Herbicidal rate of 5% or less (almost no effect))"},
      {"measurement": "Herbicidal effect by soil treatment, N: redroot pigweed", "setting": "[12]", "result": "3 (Herbicidal rate of 40% or more and less than 70%)"},
      {"measurement": "Herbicidal effect by soil treatment, O: lambsquarters", "setting": "[13]", "result": "0 (Herbicidal rate of 5% or less (almost no effect))"},
      {"measurement": "Herbicidal effect by soil treatment, P: chickweed", "setting": "[14]", "result": "0 (Herbicidal rate of 5% or less (almost no effect))"},
      {"measurement": "Herbicidal effect by soil treatment, R: persian speedwell", "setting": "[15]", "result": "0 (Herbicidal rate of 5% or less (almost no effect))"},
      {"measurement": "herbicidal effect on F: southern crabgrass (evaluation grade 0-5)", "setting": "[16]", "result": "0 (Herbicidal rate of 5% or less (almost no effect))"},
      {"measurement": "herbicidal effect on G: green foxtail (evaluation grade 0-5)", "setting": "[17]", "result": "0 (Herbicidal rate of 5% or less (almost no effect))"},
      {"measurement": "herbicidal effect on H: barnyard grass (evaluation grade 0-5)", "setting": "[18]", "result": "0 (Herbicidal rate of 5% or less (almost no effect))"},
      {"measurement": "herbicidal effect on I: wild oat (evaluation grade 0-5)", "setting": "[19]", "result": "0 (Herbicidal rate of 5% or less (almost no effect))"},
      {"measurement": "herbicidal effect on J: blackgrass (evaluation grade 0-5)", "setting": "[20]", "result": "0 (Herbicidal rate of 5% or less (almost no effect))"},
      {"measurement": "herbicidal effect on K: Italian ryegrass (evaluation grade 0-5)", "setting": "[21]", "result": "0 (Herbicidal rate of 5% or less (almost no effect))"},
      {"measurement": "herbicidal effect on L: windgrass (evaluation grade 0-5)", "setting": "[22]", "result": "0 (Herbicidal rate of 5% or less (almost no effect))"},
      {"measurement": "herbicidal effect on M: velvetleaf (evaluation grade 0-5)", "setting": "[23]", "result": "0 (Herbicidal rate of 5% or less (almost no effect))"},
      {"measurement": "herbicidal effect on N: redroot pigweed (evaluation grade 0-5)", "setting": "[24]", "result": "2 (Herbicidal rate of 20% or more and less than 40%)"},
      {"measurement": "herbicidal effect on O: lambsquarters (evaluation grade 0-5)", "setting": "[25]", "result": "0 (Herbicidal rate of 5% or less (almost no effect))"},
      {"measurement": "herbicidal effect on P: chickweed (evaluation grade 0-5)", "setting": "[26]", "result": "5 (Herbicidal rate of 90% or more (almost completely withered))"},
      {"measurement": "herbicidal effect on R: persian speedwell (evaluation grade 0-5)", "setting": "[27]", "result": "5 (Herbicidal rate of 90% or more (almost completely withered))"}
    ]}
  ]
}
